# Measured values reported in publication PMC8699473, “An Easily Expandable Multi-Drug LC-MS Assay for the Simultaneous Quantification of 57 Oral Antitumor Drugs in Human Plasma” (Cancers, 2021).
# What was measured:
# [1] = Freeze-thaw stability in spiked pooled human plasma; format: physicochemical
# [2] = Autosampler stability of ready for injection samples; format: physicochemical, human
# [3] = design: method as in supplement references [1-55] as printed per drug; conditions: minimum steady-state blood plasma concentration after multiple dose administration; ref supplement references [1-55] per drug; cited from earlier work
# [4] = Long-term stability in spiked pooled human plasma
# [5] = Short-term stability in spiked pooled human plasma (bench-top, 4 °C, 56 °C)
smiles,measurement,setting,value
CCC1=C[C@@H]2CN(C1)Cc1c([nH]c3ccccc13)[C@@](C(=O)OC)(c1cc3c(cc1OC)N(C)[C@H]1[C@@](O)(C(=O)OC)[C@H](OC(C)=O)[C@]4(CC)C=CCN5CC[C@]31[C@@H]54)C2 [Vinorelbine],Freeze-Thaw Accuracy [%],[1]; validation standard 2xLLOV,105.8%
same,Freeze-Thaw Accuracy [%],[1]; validation standard LLOV,120.0%
same,Freeze-Thaw Accuracy [%],[1]; validation standard MOV,95.7%
same,Freeze-Thaw Accuracy [%],[1]; validation standard ULOV,96.7%
same,"Autosampler (24h, 4°C) Accuracy [%]",[2]; validation standard 2xLLOV,89.9%
same,"Autosampler (72h, 4°C) Accuracy [%]",[2]; validation standard 2xLLOV,87.3%
same,"Autosampler (24h, 4°C) Accuracy [%]",[2]; validation standard LLOV,65.0%
same,"Autosampler (72h, 4°C) Accuracy [%]",[2]; validation standard LLOV,67.9%
same,"Autosampler (24h, 4°C) Accuracy [%]",[2]; validation standard MOV,97.7%
same,"Autosampler (72h, 4°C) Accuracy [%]",[2]; validation standard MOV,99.6%
same,"Autosampler (24h, 4°C) Accuracy [%]",[2]; validation standard ULOV,102.4%
same,"Autosampler (72h, 4°C) Accuracy [%]",[2]; validation standard ULOV,99.5%
same,cmin,[3],2.6 ng/mL
same,"Long-term stability, 1 month, -20°C Accuracy [%]",[4]; validation standard 2xLLOV,97.3%
same,"Long-term stability, 1 month, -80°C Accuracy [%]",[4]; validation standard 2xLLOV,110.2%
same,"Long-term stability, 2 month, -20°C Accuracy [%]",[4]; validation standard 2xLLOV,108.5%
same,"Long-term stability, 2 month, -80°C Accuracy [%]",[4]; validation standard 2xLLOV,94.1%
same,"Long-term stability, 3 month, -20°C Accuracy [%]",[4]; validation standard 2xLLOV,98.4%
same,"Long-term stability, 3 month, -80°C Accuracy [%]",[4]; validation standard 2xLLOV,97.8%
same,"Long-term stability, 6 weeks, 4°C, without daylight Accuracy [%]",[4]; validation standard 2xLLOV,75.3%
same,"Long-term stability, 1 month, -20°C Accuracy [%]",[4]; validation standard LLOV,118.3%
same,"Long-term stability, 1 month, -80°C Accuracy [%]",[4]; validation standard LLOV,110.0%
same,"Long-term stability, 2 month, -20°C Accuracy [%]",[4]; validation standard LLOV,98.1%
same,"Long-term stability, 2 month, -80°C Accuracy [%]",[4]; validation standard LLOV,109.4%
same,"Long-term stability, 3 month, -20°C Accuracy [%]",[4]; validation standard LLOV,101.7%
same,"Long-term stability, 3 month, -80°C Accuracy [%]",[4]; validation standard LLOV,118.7%
same,"Long-term stability, 6 weeks, 4°C, without daylight Accuracy [%]",[4]; validation standard LLOV,85.9%
same,"Long-term stability, 1 month, -20°C Accuracy [%]",[4]; validation standard MOV,90.2%
same,"Long-term stability, 1 month, -80°C Accuracy [%]",[4]; validation standard MOV,88.9%
same,"Long-term stability, 2 month, -20°C Accuracy [%]",[4]; validation standard MOV,89.2%
same,"Long-term stability, 2 month, -80°C Accuracy [%]",[4]; validation standard MOV,92.4%
same,"Long-term stability, 3 month, -20°C Accuracy [%]",[4]; validation standard MOV,98.2%
same,"Long-term stability, 3 month, -80°C Accuracy [%]",[4]; validation standard MOV,93.5%
same,"Long-term stability, 6 weeks, 4°C, without daylight Accuracy [%]",[4]; validation standard MOV,73.1%
same,"Long-term stability, 1 month, -20°C Accuracy [%]",[4]; validation standard ULOV,90.4%
same,"Long-term stability, 1 month, -80°C Accuracy [%]",[4]; validation standard ULOV,92.0%
same,"Long-term stability, 2 month, -20°C Accuracy [%]",[4]; validation standard ULOV,87.6%
same,"Long-term stability, 2 month, -80°C Accuracy [%]",[4]; validation standard ULOV,99.6%
same,"Long-term stability, 3 month, -20°C Accuracy [%]",[4]; validation standard ULOV,92.2%
same,"Long-term stability, 3 month, -80°C Accuracy [%]",[4]; validation standard ULOV,98.1%
same,"Long-term stability, 6 weeks, 4°C, without daylight Accuracy [%]",[4]; validation standard ULOV,56.9%
same,"Short-time stability (1h, 56°C) Accuracy [%]",[5]; validation standard 2xLLOV,42.2%
same,"Short-time stability (24h, 4°C, without daylight) Accuracy [%]",[5]; validation standard 2xLLOV,88.7%
same,"Short-time stability (24h, RT, with daylight) Accuracy [%]",[5]; validation standard 2xLLOV,78.0%
same,"Short-time stability (24h, RT, without daylight) Accuracy [%]",[5]; validation standard 2xLLOV,79.3%
same,"Short-time stability (1h, 56°C) Accuracy [%]",[5]; validation standard LLOV,67.0%
same,"Short-time stability (24h, 4°C, without daylight) Accuracy [%]",[5]; validation standard LLOV,96.3%
same,"Short-time stability (24h, RT, with daylight) Accuracy [%]",[5]; validation standard LLOV,98.2%
same,"Short-time stability (24h, RT, without daylight) Accuracy [%]",[5]; validation standard LLOV,96.4%
same,"Short-time stability (1h, 56°C) Accuracy [%]",[5]; validation standard MOV,37.2%
same,"Short-time stability (24h, 4°C, without daylight) Accuracy [%]",[5]; validation standard MOV,93.6%
same,"Short-time stability (24h, RT, with daylight) Accuracy [%]",[5]; validation standard MOV,66.8%
same,"Short-time stability (24h, RT, without daylight) Accuracy [%]",[5]; validation standard MOV,70.0%
same,"Short-time stability (1h, 56°C) Accuracy [%]",[5]; validation standard ULOV,29.6%
same,"Short-time stability (24h, 4°C, without daylight) Accuracy [%]",[5]; validation standard ULOV,91.1%
same,"Short-time stability (24h, RT, with daylight) Accuracy [%]",[5]; validation standard ULOV,62.0%
same,"Short-time stability (24h, RT, without daylight) Accuracy [%]",[5]; validation standard ULOV,57.4%
CC(=O)Nc1cccc(-n2c(=O)n(C3CC3)c(=O)c3c(Nc4ccc(I)cc4F)n(C)c(=O)c(C)c32)c1 [Trametinib],Freeze-Thaw Accuracy [%],[1]; validation standard 2xLLOV,97.6%
same,Freeze-Thaw Accuracy [%],[1]; validation standard LLOV,93.8%
same,Freeze-Thaw Accuracy [%],[1]; validation standard MOV,102.5%
same,Freeze-Thaw Accuracy [%],[1]; validation standard ULOV,97.0%
same,"Autosampler (24h, 4°C) Accuracy [%]",[2]; validation standard 2xLLOV,105.8%
same,"Autosampler (72h, 4°C) Accuracy [%]",[2]; validation standard 2xLLOV,101.8%
same,"Autosampler (24h, 4°C) Accuracy [%]",[2]; validation standard LLOV,101.7%
same,"Autosampler (72h, 4°C) Accuracy [%]",[2]; validation standard LLOV,100.1%
same,"Autosampler (24h, 4°C) Accuracy [%]",[2]; validation standard MOV,103.1%
same,"Autosampler (72h, 4°C) Accuracy [%]",[2]; validation standard MOV,103.5%
same,"Autosampler (24h, 4°C) Accuracy [%]",[2]; validation standard ULOV,97.7%
same,"Autosampler (72h, 4°C) Accuracy [%]",[2]; validation standard ULOV,97.0%
same,cmin,[3],12.1 ng/mL
same,"Long-term stability, 1 month, -20°C Accuracy [%]",[4]; validation standard 2xLLOV,105.1%
same,"Long-term stability, 1 month, -80°C Accuracy [%]",[4]; validation standard 2xLLOV,110.9%
same,"Long-term stability, 2 month, -20°C Accuracy [%]",[4]; validation standard 2xLLOV,123.9%
same,"Long-term stability, 2 month, -80°C Accuracy [%]",[4]; validation standard 2xLLOV,104.2%
same,"Long-term stability, 3 month, -20°C Accuracy [%]",[4]; validation standard 2xLLOV,105.5%
same,"Long-term stability, 3 month, -80°C Accuracy [%]",[4]; validation standard 2xLLOV,103.8%
same,"Long-term stability, 6 weeks, 4°C, without daylight Accuracy [%]",[4]; validation standard 2xLLOV,97.4%
same,"Long-term stability, 1 month, -20°C Accuracy [%]",[4]; validation standard LLOV,111.6%
same,"Long-term stability, 1 month, -80°C Accuracy [%]",[4]; validation standard LLOV,101.9%
same,"Long-term stability, 2 month, -20°C Accuracy [%]",[4]; validation standard LLOV,111.6%
same,"Long-term stability, 2 month, -80°C Accuracy [%]",[4]; validation standard LLOV,103.4%
same,"Long-term stability, 3 month, -20°C Accuracy [%]",[4]; validation standard LLOV,96.6%
same,"Long-term stability, 3 month, -80°C Accuracy [%]",[4]; validation standard LLOV,104.8%
same,"Long-term stability, 6 weeks, 4°C, without daylight Accuracy [%]",[4]; validation standard LLOV,101.5%
same,"Long-term stability, 1 month, -20°C Accuracy [%]",[4]; validation standard MOV,105.2%
same,"Long-term stability, 1 month, -80°C Accuracy [%]",[4]; validation standard MOV,107.1%
same,"Long-term stability, 2 month, -20°C Accuracy [%]",[4]; validation standard MOV,116.1%
same,"Long-term stability, 2 month, -80°C Accuracy [%]",[4]; validation standard MOV,117.6%
same,"Long-term stability, 3 month, -20°C Accuracy [%]",[4]; validation standard MOV,102.9%
same,"Long-term stability, 3 month, -80°C Accuracy [%]",[4]; validation standard MOV,102.5%
same,"Long-term stability, 6 weeks, 4°C, without daylight Accuracy [%]",[4]; validation standard MOV,103.9%
same,"Long-term stability, 1 month, -20°C Accuracy [%]",[4]; validation standard ULOV,103.2%
same,"Long-term stability, 1 month, -80°C Accuracy [%]",[4]; validation standard ULOV,99.6%
same,"Long-term stability, 2 month, -20°C Accuracy [%]",[4]; validation standard ULOV,119.8%
same,"Long-term stability, 2 month, -80°C Accuracy [%]",[4]; validation standard ULOV,115.3%
same,"Long-term stability, 3 month, -20°C Accuracy [%]",[4]; validation standard ULOV,94.5%
same,"Long-term stability, 3 month, -80°C Accuracy [%]",[4]; validation standard ULOV,106.9%
same,"Long-term stability, 6 weeks, 4°C, without daylight Accuracy [%]",[4]; validation standard ULOV,94.7%
same,"Short-time stability (1h, 56°C) Accuracy [%]",[5]; validation standard 2xLLOV,40.7%
same,"Short-time stability (24h, 4°C, without daylight) Accuracy [%]",[5]; validation standard 2xLLOV,101.9%
same,"Short-time stability (24h, RT, with daylight) Accuracy [%]",[5]; validation standard 2xLLOV,88.2%
same,"Short-time stability (24h, RT, without daylight) Accuracy [%]",[5]; validation standard 2xLLOV,94.3%
same,"Short-time stability (1h, 56°C) Accuracy [%]",[5]; validation standard LLOV,0.4%
same,"Short-time stability (24h, 4°C, without daylight) Accuracy [%]",[5]; validation standard LLOV,90.4%
same,"Short-time stability (24h, RT, with daylight) Accuracy [%]",[5]; validation standard LLOV,78.3%
same,"Short-time stability (24h, RT, without daylight) Accuracy [%]",[5]; validation standard LLOV,53.1%
same,"Short-time stability (1h, 56°C) Accuracy [%]",[5]; validation standard MOV,52.0%
same,"Short-time stability (24h, 4°C, without daylight) Accuracy [%]",[5]; validation standard MOV,115.0%
same,"Short-time stability (24h, RT, with daylight) Accuracy [%]",[5]; validation standard MOV,101.6%
same,"Short-time stability (24h, RT, without daylight) Accuracy [%]",[5]; validation standard MOV,99.7%
same,"Short-time stability (1h, 56°C) Accuracy [%]",[5]; validation standard ULOV,47.5%
same,"Short-time stability (24h, 4°C, without daylight) Accuracy [%]",[5]; validation standard ULOV,108.2%
same,"Short-time stability (24h, RT, with daylight) Accuracy [%]",[5]; validation standard ULOV,96.8%
same,"Short-time stability (24h, RT, without daylight) Accuracy [%]",[5]; validation standard ULOV,92.2%
